# Results from ChEMBL document CHEMBL3612056, “Mechanism studies on anti-HepG2 cell proliferation of phenanthroline derivatives as G-quadruplex DNA stabilizers” (Bioorg Med Chem Lett, 2015).
# The source made the active and inactive calls. No cut-off for these calls is given here.
# Columns and labels:
# [1] = Stabilization of c-myc promoter G-quadruplex DNA (unknown origin)
# DNA = assay: Stabilization of human telomere promoter G-quadruplex DNA (unknown origin); format: nucleic-acid assay
# HepG2 [2] = assay: Cytotoxicity against human HepG2 cells assessed as reduction in cell viability incubated for 72 hrs by MTT assay; format: functional, cell-based; settings: HepG2, 72 h
# HeLa = assay: Cytotoxicity against human HeLa cells assessed as reduction in cell viability incubated for 72 hrs by MTT assay; format: functional, cell-based
# MCF7 = assay: Cytotoxicity against human MCF7 cells assessed as reduction in cell viability incubated for 72 hrs by MTT assay; format: functional, cell-based; settings: MCF7, 72 h
# HepG2 [3] = assay: Induction of cell cycle arrest in human HepG2 cells assessed as accumulation at G0/G1 phase at 4 uM incubated for 2 days by propidium iodide staining based flow cytometry method (reference value: 64.6%); format: functional
# HepG2 [4] = assay: Induction of cell cycle arrest in human HepG2 cells assessed as accumulation at S phase at 4 uM incubated for 2 days by propidium iodide staining based flow cytometry method (reference value: 24.65%); format: functional
# HepG2 [5] = assay: Induction of cell cycle arrest in human HepG2 cells assessed as accumulation at G2/M phase at 4 uM incubated for 2 days by propidium iodide staining based flow cytometry method (reference value: 10.75%); format: functional
# HepG2 [6] = assay: Induction of cell cycle arrest in human HepG2 cells assessed as accumulation at G0/G1 phase at 8 uM incubated for 2 days by propidium iodide staining based flow cytometry method (reference value: 64.6%); format: functional
# HepG2 [7] = assay: Induction of cell cycle arrest in human HepG2 cells assessed as accumulation at S phase at 8 uM incubated for 2 days by propidium iodide staining based flow cytometry method (reference value: 24.65%); format: functional
# HepG2 [8] = assay: Induction of cell cycle arrest in human HepG2 cells assessed as accumulation at G2/M phase at 8 uM incubated for 2 days by propidium iodide staining based flow cytometry method (reference value: 10.75%); format: functional
# HepG2 [9] = assay: Reduction in cyclin B1/CDK1 protein expression in human HepG2 cells incubated for 2 days by Western blot method; format: functional, cell-based
# HepG2 [10] = assay: Reduction in cyclin D1/CDK4 protein expression in human HepG2 cells incubated for 2 days by Western blot method; format: functional, cell-based
# HepG2 [11] = assay: Induction of apoptosis in human HepG2 cells by Annexin-V-FITC and propidium iodide staining based flow cytometry; format: functional, cell-based
# HepG2 [12] = assay: Induction of apoptosis in human HepG2 cells assessed as viable cells levels at 8 uM incubated for 2 days by Annexin-V-FITC and propidium iodide staining based flow cytometry (reference value: 97.9%); format: functional
# HepG2 [13] = assay: Induction of apoptosis in human HepG2 cells assessed as early apoptotic cells levels at 8 uM incubated for 2 days by Annexin-V-FITC and propidium iodide staining based flow cytometry (reference value: 0.3%); format: functional
# HepG2 [14] = assay: Induction of apoptosis in human HepG2 cells assessed as late apoptotic cells levels at 8 uM incubated for 2 days by Annexin-V-FITC and propidium iodide staining based flow cytometry (reference value: 0.5%); format: functional
# HepG2 [15] = assay: Induction of apoptosis in human HepG2 cells assessed as necrotic cells levels at 8 uM incubated for 2 days by Annexin-V-FITC and propidium iodide staining based flow cytometry (reference value: 1.4%); format: functional
# HepG2 [16] = assay: Induction of apoptosis in human HepG2 cells assessed as viable cells levels at 12 uM incubated for 2 days by Annexin-V-FITC and propidium iodide staining based flow cytometry (reference value: 97.9%); format: functional
# HepG2 [17] = assay: Induction of apoptosis in human HepG2 cells assessed as early apoptotic cells levels at 12 uM incubated for 2 days by Annexin-V-FITC and propidium iodide staining based flow cytometry (reference value: 0.3%); format: functional
# HepG2 [18] = assay: Induction of apoptosis in human HepG2 cells assessed as late apoptotic cells levels at 12 uM incubated for 2 days by Annexin-V-FITC and propidium iodide staining based flow cytometry (reference value: 0.5%); format: functional
# HepG2 [19] = assay: Induction of apoptosis in human HepG2 cells assessed as necrotic cells levels at 12 uM incubated for 2 days by Annexin-V-FITC and propidium iodide staining based flow cytometry (reference value: 1.4%); format: functional
# HepG2 [20] = assay: Induction of apoptosis in human HepG2 cells assessed as viable cells levels at 8 uM incubated for 3 days by Annexin-V-FITC and propidium iodide staining based flow cytometry (reference value: 89.3%); format: functional
# HepG2 [21] = assay: Induction of apoptosis in human HepG2 cells assessed as early apoptotic cells levels at 8 uM incubated for 3 days by Annexin-V-FITC and propidium iodide staining based flow cytometry (reference value: 2.9%); format: functional
# HepG2 [22] = assay: Induction of apoptosis in human HepG2 cells assessed as late apoptotic cells levels at 8 uM incubated for 3 days by Annexin-V-FITC and propidium iodide staining based flow cytometry (reference value: 3.9%); format: functional
# HepG2 [23] = assay: Induction of apoptosis in human HepG2 cells assessed as necrotic cells levels at 8 uM incubated for 3 days by Annexin-V-FITC and propidium iodide staining based flow cytometry (reference value: 3.8%); format: functional
# HepG2 [24] = assay: Induction of apoptosis in human HepG2 cells assessed as viable cells levels at 12 uM incubated for 3 days by Annexin-V-FITC and propidium iodide staining based flow cytometry (reference value: 89.3%); format: functional
# HepG2 [25] = assay: Induction of apoptosis in human HepG2 cells assessed as early apoptotic cells levels at 12 uM incubated for 3 days by Annexin-V-FITC and propidium iodide staining based flow cytometry (reference value: 2.9%); format: functional
# HepG2 [26] = assay: Induction of apoptosis in human HepG2 cells assessed as late apoptotic cells levels at 12 uM incubated for 3 days by Annexin-V-FITC and propidium iodide staining based flow cytometry (reference value: 3.9%); format: functional
# HepG2 [27] = assay: Induction of apoptosis in human HepG2 cells assessed as necrotic cells levels at 12 uM incubated for 3 days by Annexin-V-FITC and propidium iodide staining based flow cytometry (reference value: 3.8%); format: functional
# HepG2 [28] = assay: Reduction in c-Myc gene expression in human HepG2 cells at 2 to 16 uM incubated for 2 days by RT-PCR method; format: functional, cell-based
# HepG2 [29] = assay: Effect on TERT gene expression in human HepG2 cells at 2 to 16 uM incubated for 2 days by RT-PCR method; format: functional, cell-based
# HepG2 [30] = assay: Reduction in c-Myc protein expression in human HepG2 cells at 2 to 12 uM incubated for 2 days by Western blot method; format: functional, cell-based
# HepG2 [31] = assay: Reduction in TERT protein expression in human HepG2 cells at 2 to 12 uM incubated for 2 days by Western blot method; format: functional, cell-based
# HepG2 [32] = assay: Increase in p53 protein expression in human HepG2 cells at 8 and 12 uM incubated for 2 days by Western blot method; format: functional, cell-based
# HepG2 [33] = assay: Reduction in Sp1 protein expression in human HepG2 cells at 8 and 12 uM incubated for 2 days by Western blot method; format: functional, cell-based
# HepG2 [34] = assay: Inhibition of cell proliferation of human HepG2 cells at 0.5 uM incubated for 12 days by long-term cell growth inhibition assay; format: functional, cell-based
# HepG2 [35] = assay: Inhibition of telomeric DNA elongation in human HepG2 cells at 0.5 uM incubated for 17 days by telomere restriction fragment length assay; format: functional, cell-based
# HepG2 [36] = assay: Induction of cell cycle arrest in human HepG2 cells assessed as reduction in accumulation at S phase incubated for 2 days by propidium iodide staining based flow cytometry method; format: functional
# HepG2 [37] = assay: Induction of cell cycle arrest in human HepG2 cells assessed as reduction in accumulation at G2/M phase incubated for 2 days by propidium iodide staining based flow cytometry method; format: functional
# HepG2 [38] = assay: Induction of cell cycle arrest in human HepG2 cells assessed as increase in accumulation at G0/G1 phase incubated for 2 days by propidium iodide staining based flow cytometry method; format: functional
# HepG2 [39] = assay: Induction of cell cycle arrest in human HepG2 cells assessed as accumulation at G0/G1 phase at 4 uM incubated for 2 days by propidium iodide staining based flow cytometry method (reference value: 51.56%); format: functional
# HepG2 [40] = assay: Induction of cell cycle arrest in human HepG2 cells assessed as accumulation at S phase at 4 uM incubated for 2 days by propidium iodide staining based flow cytometry method (reference value: 27.05%); format: functional
# HepG2 [41] = assay: Induction of cell cycle arrest in human HepG2 cells assessed as accumulation at G2/M phase at 4 uM incubated for 2 days by propidium iodide staining based flow cytometry method (reference value: 21.39%); format: functional
# HepG2 [42] = assay: Induction of cell cycle arrest in human HepG2 cells assessed as accumulation at G0/G1 phase at 8 uM incubated for 2 days by propidium iodide staining based flow cytometry method (reference value: 51.56%); format: functional
# HepG2 [43] = assay: Induction of cell cycle arrest in human HepG2 cells assessed as accumulation at S phase at 8 uM incubated for 2 days by propidium iodide staining based flow cytometry method (reference value: 27.05%); format: functional
# HepG2 [44] = assay: Induction of cell cycle arrest in human HepG2 cells assessed as accumulation at G2/M phase at 8 uM incubated for 2 days by propidium iodide staining based flow cytometry method (reference value: 21.39%); format: functional
# HepG2 [45] = assay: Reduction in c-Myc protein expression in human HepG2 cells at 0.5 to 20 uM incubated for 2 days by Western blot method; format: functional, cell-based
# HepG2 [46] = assay: Reduction in TERT protein expression in human HepG2 cells at 0.5 to 20 uM incubated for 2 days by Western blot method; format: functional, cell-based
smiles,measurement,setting,value
O=C(CCN1CCCC1)Nc1cccc(NC(=O)c2ccc3ccc4ccc(C(=O)Nc5cccc(NC(=O)CCN6CCCC6)n5)nc4c3n2)n1,Activity,[1],Active
same,Activity,DNA,Active
same,IC50,HepG2 [2],1260 nM
same,IC50,HeLa,830 nM
same,IC50,MCF7,1570 nM
same,Activity,HepG2 [3],59.87%
same,Activity,HepG2 [4],26.82%
same,Activity,HepG2 [5],13.82%
same,Activity,HepG2 [6],42.26%
same,Activity,HepG2 [7],38.57%
same,Activity,HepG2 [8],19.17%
same,inhibition,HepG2 [9],Dose-dependent effect
same,inhibition,HepG2 [10],Dose-dependent effect
same,Activity,HepG2 [11],Dose-dependent effect
same,Activity,HepG2 [12],84.2%
same,Activity,HepG2 [13],3.3%
same,Activity,HepG2 [14],7.5%
same,Activity,HepG2 [15],5%
same,Activity,HepG2 [16],81.7%
same,Activity,HepG2 [17],4.9%
same,Activity,HepG2 [18],8.2%
same,Activity,HepG2 [19],5.2%
same,Activity,HepG2 [20],33.7%
same,Activity,HepG2 [21],39.6%
same,Activity,HepG2 [22],17.4%
same,Activity,HepG2 [23],9.3%
same,Activity,HepG2 [24],31.6%
same,Activity,HepG2 [25],39.5%
same,Activity,HepG2 [26],18.7%
same,Activity,HepG2 [27],10.2%
same,inhibition,HepG2 [28],Active
same,Activity,HepG2 [29],inactive
same,inhibition,HepG2 [30],Active
same,inhibition,HepG2 [31],Active
same,Activity,HepG2 [32],Active
same,inhibition,HepG2 [33],Dose-dependent effect
same,inhibition,HepG2 [34],Active
same,inhibition,HepG2 [35],inactive
O=C(Nc1ccc(OCCN2CCCC2)cc1)c1ccc2ccc3ccc(C(=O)Nc4ccc(OCCN5CCCC5)cc4)nc3c2n1,Activity,[1],Active
same,Activity,DNA,Active
same,IC50,HepG2 [2],500 nM
same,IC50,HeLa,2100 nM
same,IC50,MCF7,2000 nM
same,Activity,HepG2 [36],Dose-dependent effect
same,Activity,HepG2 [37],Dose-dependent effect
same,Activity,HepG2 [38],Dose-dependent effect
same,Activity,HepG2 [39],55.76%
same,Activity,HepG2 [40],25.69%
same,Activity,HepG2 [41],18.55%
same,Activity,HepG2 [42],64.97%
same,Activity,HepG2 [43],19.9%
same,Activity,HepG2 [44],15.13%
same,inhibition,HepG2 [9],Dose-dependent effect
same,inhibition,HepG2 [10],Dose-dependent effect
same,Activity,HepG2 [11],Dose-dependent effect
same,Activity,HepG2 [12],78.4%
same,Activity,HepG2 [13],10.8%
same,Activity,HepG2 [14],5.4%
same,Activity,HepG2 [15],5.3%
same,Activity,HepG2 [16],65.1%
same,Activity,HepG2 [17],19.4%
same,Activity,HepG2 [18],9.5%
same,Activity,HepG2 [19],6%
same,Activity,HepG2 [20],28.2%
same,Activity,HepG2 [21],46.6%
same,Activity,HepG2 [22],20%
same,Activity,HepG2 [23],5.2%
same,Activity,HepG2 [24],14.4%
same,Activity,HepG2 [25],73.9%
same,Activity,HepG2 [26],10.7%
same,Activity,HepG2 [27],1.1%
same,inhibition,HepG2 [28],Active
same,Activity,HepG2 [29],inactive
same,inhibition,HepG2 [45],Active
same,inhibition,HepG2 [46],Active
same,Activity,HepG2 [32],Active
same,inhibition,HepG2 [33],Dose-dependent effect
same,inhibition,HepG2 [34],Active
same,inhibition,HepG2 [35],inactive
